Where “and” joins values, the source holds several entries; their conditions need not be identical. Equal values may be shown once. Read-outs that look alike come from different tables or passages of the source.
Tests used:
[1] = test system: HCV replicon cells; assay: Cellular growth by percent confluence (IncuCyte time-lapse microscopy); type: cell-based; settings: for effect on kinetics of cellular proliferation: 1 µM, % confluence every four hours; for minimum inhibitory concentration (MIC) for growth rate: lowest concentration with significant decrease in growth rate
From the text: To distinguish between these two mechanisms, we directly measured cellular confluence (the percent of the culture well occupied by cells, % confluence) every four hours and quantified cellular replication rates.
We next determined if 17-AAG slows cell growth at the same concentration at which it inhibits HCV replication. We quantified growth rate by assessing the change in % confluence between days 1 and 2 (% confluence/day) and measured the effect of growth rate as a function of dose.
(§1) To assess cellular growth, 96 well plates ImageLock plates (Essen Instruments, Ann Arbor, MI) were seeded at a density of 5×10^3 cells/well in culture medium without G418. Percent confluence was quantified using bright phase images (at 10× magnification) acquired of each well every four hours in an IncuCyte (Essen Instuments, Ann Arbor, MI). Alternatively, 7.5×10^4 cells/well were plated in 6 well plates. Each day post drug addition, cells were dislodged from the tissue culture plate using 350 µL trypsin-EDTA and then quenched with 150 µL fetal bovine serum. The number of cells that exclude trypan-blue was determined using the Vi-Cell (Beckman Coulter, Fullerton, CA) in triplicate.

[2] = test system: luciferase-encoding HCV replicon; assay: HCV replicon Renilla luciferase antiviral assay; type: cell-based, hepatitis C virus; settings: three days post drug addition
Procedure: (§2) Using a stable cell line replicating a luciferase-encoding HCV replicon, we measured viral replication levels (Renilla luciferase) across a range of drug concentrations (2 nM to 44.4 µM) three days post drug addition. In parallel, we measured intracellular esterase activity as a surrogate for cell viability using the Calcein AM reagent.
(§3) Renilla luciferase replicon cell assays were performed as previously described. Calcein AM (Anaspec, Fremont, CA) and CellTiter-Glo (Promega, Madison, WI) readouts were performed as instructed by the manufacturer.

[3] = test system: HCV replicon cells; assay: Calcein AM intracellular esterase activity (cell viability)
Procedure: as §2, §3

[4] = as above
Procedure: as §2, §3

[5] = test system: HCV replicon cells; assay: Trypan-blue exclusion viable cell count; type: cell-based; settings: 1 µM, multiple timepoints post drug addition
Procedure: Cells treated were trypsinized and quantified at multiple timepoints post drug addition (Fig. 5C).
as §1

[6] = test system: genotype 1a replicon cells; assay: Cell number by count of Hoechst-stained nuclei; type: cell-based; settings: three days; for effect on number of cells per image / number of cells per image: 1 µM compound
Procedure: (§4) For direct assessment of cell number, genotype 1a replicon cells were seeded in 384 well plates at 1500 cells/well. Compounds were added as previously described. Cells were fixed in 1% paraformaldehyde (Electron Microscopy Sciences) and 25 µg/ml Hoechst 33342 (Invitrogen) in PBS for 30 minutes at room temperature. The fixed cells were washed twice with PBS, and images of each well were acquired with the ImageXpress Micro (Molecular Devices, Sunnyvale, CA). Nuclei were quantified with the cell scoring application in MetaXpress (Molecular Devices, Sunnyvale, CA).

[7] = Cell number by count of Hoechst-stained nuclei; type: cell-based; settings: genotype 1a HCV replicon cells; Hoechst-stained nuclei, three days
Procedure: as §4

[8] = CellTiter-Glo intracellular ATP (cell viability)
Procedure: as §3

[9] = test system: HCVcc Min3 virus; assay: Antiviral potency in rapidly-dividing virus-infected cells (NS3-4A protease activity); type: cell-based, hepatitis C virus
Procedure: To assess the antiviral potency of compounds in rapidly-dividing virus-infected cells. we adapted a method from a previously described assay. Briefly, 1500 cells per well were plated in 384 well-plates. Infection with the HCVcc Min3 virus (core K78E, NS2 W879R, and NS4B K1761N) was followed by addition of compound as described. After three days, intracellular NS3-4A protease activity was assessed. Luciferase, Calcein, CellTiter-Glo, and NS3-4A levels were expressed as a percent of the no-drug control.
Supplementary file pone.0030286.s001.tif: Figure S1 CsA and 17-AAG maintain potency, similar to rapidly-dividing replicon cells, in rapidly-dividing virus-infected cells. The normalized amount of virus, as measured by enzymatic activity of the NS3-4A protease, was determined as a function of dose. […] (TIF) Click here for additional data file.

[10] = test system: adapted HCV (2a) in dividing cells; assay: Extracellular HCV titer in fully-infected dividing cultures; type: cell-based, hepatitis C virus
Procedure: As a comparative control, we performed the same compound-treatment using fully-infected cultures that were still dividing (see Materials and Methods). […] The inhibitory effect of 17-AAG was diminished only as the cell cultures reached confluence (days 3 and 4 post-compound addition) (Fig. 6B).
As a comparative control, fully-infected, growing cell cultures were prepared as well. Briefly, cells were plated at 25,000 cells/well on 12-well plates. After the cells adhered to the plate (four hours post-seeding), they were infected at an MOI of five using adapted HCV (2a) (see above). The HCV infection was permitted to spread until the cultures were fully infected (three days post-infection). Subsequently, compounds were added and extracellular medium was removed each day and analyzed as described above.

[11] = test system: Infectious HCV (2a) Min3 virus in non-dividing Lunet-CD81 cells; assay: Extracellular HCV titer in HCV-infected non-dividing cultures; type: cell-based, hepatitis C virus; settings: for reduction of infectious HCV titer: 10×EC50 (0.35 µM)
Procedure: (§5) Because 17-AAG slows cellular proliferation at concentrations similar to its effective concentration for inhibiting HCV replication, we next assessed whether it inhibited HCV replication in non-dividing cells. We first established a non-dividing monolayer of Lunet-CD81 cells and then infected that monolayer with cell-culture adapted virus capable of spreading and infecting all of the cells in a culture. […] When the fully-infected non-dividing cultures were treated with DMSO alone, the extracellular viral titer remained relatively constant at between 10^5 and 10^6 TCID50/ml over time (Fig. 6A). […] The reduction in HCV titer caused by 17-AAG, may at least in part, result from the modest toxicity observed in the non-dividing monolayers at the concentrations used.
HCV-infected non-dividing cultures were established by methods adapted from Sainz and Chisari. Briefly, Lunet-CD81 cells were seeded in 12-well plates at a density of 50,000 cells/well. The plates were incubated over-night at 37°C and subsequently DMSO was added to 1% final concentration. Cells were allowed to grow to confluence over three days. Infectious HCV (2a) with three adaptive mutations (the Min3 virus) (core K78E, NS2 W879R, and NS4B K1761N) was then added to each well at an MOI of five. […] 200 µl aliquots of the extracellular medium were saved daily, stored at −80°C, and subsequently used for infectious viral titering. After three days, the compound-medium was refreshed and time points were collected for seven days. Viral titers as a percentage of the DMSO-treated control were measured through diluting the extracellular medium 40-fold and using it to infect naïve Lunet-CD81 cells. After 72 hours of incubation, intracellular HCV replication was measured by following NS3-4A protease cleavage of a europium-labeled peptide.

[12] = test system: non-dividing Lunet-CD81 monolayers; assay: Cell number in non-dividing monolayers
Procedure: as §5

[13] = test system: HCV replicon cells; assay: CellTiter-Glo intracellular ATP (cell viability); settings: three day assay
Procedure: as §3

| SMILES | effect on kinetics of cellular proliferation [1] | minimum inhibitory concentration (MIC) for growth rate [1] [µM] | EC50 ([2]; Hepatitis C virus, 72 h) [nM] | CC50 at 3 days [4] [nM] | effect on number of viable cells [5] | effect on number of cells per image [6] | CC50 at 3 days [7] [nM] | CC50 at 3 days [8] [nM] | number of cells per image [6] | also measured |
| --- | --- | --- | --- | --- | --- | --- | --- | --- | --- | --- |
| COc1ccc(C[C@H](N)C(=O)N[C@H]2[C@@H](O)[C@H](n3cnc4c(N(C)C)ncnc43)O[C@@H]2CO)cc1 [Puromycin, puromycin] | rapid elimination of cells | 0.205 | 290 | 1070 | reduced the number of viable cells equally effectively | eliminated all cells | 52 | 516 |  | difference between CC50 (toxic concentration) and EC50 (antiviral concentration) ([3]; Calcein assay vs replicon assay): ≤ 4 fold |
| COc1ccc2c(O[C@@H]3C[C@H]4C(=O)N[C@]5(C(=O)O)C[C@H]5/C=C\CCCCC[C@H](NC(=O)OC5CCCC5)C(=O)N4C3)cc(-c3csc(NC(C)C)n3)nc2c1 [BILN-2061] |  |  |  |  |  |  |  |  |  | EC50 ([9]; Hepatitis C virus, 72 h): 140 nM; effect on viral titers ([10]; dividing and non-dividing cells, 10×EC50): inhibited viral titers in both dividing and non-dividing cells; suppression of infectious HCV titer ([11]; non-dividing cells, 10×EC50, sustained over 7-day time course): 2 log; effect on number of cells ([12]; human, 10 ×EC50): neither CsA nor BILN 2061-treatment decreased the number of cells |
| Nc1ccn([C@@H]2O[C@H](CO)[C@@H](O)C2(F)F)c(=O)n1 [Gemcitabine, gemcitabine] |  |  | 12 | > 44400 |  |  | 4 | 6 | ~22 % of the controls |  |
| COc1cc2c(c(OC)c1OC)-c1ccc(OC)c(=O)cc1[C@@H](NC(C)=O)CC2 [Colchicine, colchicine] |  |  |  | > 44400 |  |  |  | 16 |  | intracellular ATP signal ([13]; maximal effect): < 7 % of the untreated controls |
| C=CCNC1=C2C[C@@H](C)C[C@H](OC)[C@H](O)[C@@H](C)/C=C(\C)[C@H](OC(N)=O)[C@@H](OC)/C=C\C=C(/C)C(=O)NC(=CC1=O)C2=O [17-AAG, 17-(Allylamino)-17-demethoxygeldanamycin] | slowed the kinetics of cellular proliferation significantly | 0.022 |  |  | reduced the number of viable cells equally effectively |  |  |  | ~22 % of the controls | EC50 ([9]; rapidly-dividing virus-infected cells, NS3-4A protease activity, three days, read-out: EC50): 35 nM; growth rate ([1]; 22 nM, change in % confluence between days 1 and 2): 18.0+/−1.1 % confluence/day; reduction of level of infectious HCV ([10]; dividing cells, 10×EC50, after 24 hours of treatment): roughly 2 logs; EC50 [2]: 12.1 nM and 12 nM; antiviral effect on HCV titer ([11]; non-dividing cell-culture model of HCV replication): little antiviral effect; reduction of infectious HCV titer ([11]; non-dividing cells, Day 7): 0.3 log; reduction of infectious HCV titer ([11]; non-dividing cells, day 2): 0.6 log; number of cells ([12]; non-dividing monolayers, 10×EC50): 74 % of the DMSO-treated control; CC50 ([3]; read-out: CC50 Calcein, intracellular esterase activity, three day assay): 21000 nM; CC50 ([6]; Hoechst-stained nuclei): 5 nM; CC50 ([13]; read-out: CC50 Intracellular ATP, CellTiter-Glo): 38 nM |
| CNC(=O)c1c(-c2ccc(F)cc2)oc2cc(N(CCO)S(C)(=O)=O)c(C3CC3)cc12 [HCV-796] |  |  | 15 | > 44400 | Neither CsA nor HCV-796 treatment affected cell viability | Neither 1 µM CsA (Fig. 4C) nor HCV-796 (Fig. 4A) altered the number of cells per image | > 44400 | > 44400 |  | effect on cell proliferation (growth rate as a function of dose) ([1]; any concentration tested): did not significantly impair cell proliferation at any concentration tested; cytotoxicity (intracellular esterase activity) ([3]; 2 nM to 44.4 µM, three days): without any observable cytotoxicity; toxicity by cell number ([6]; dose response): non-toxic at all concentrations tested |
